Where “and” joins values, the source holds several entries; their conditions need not be identical. Equal entries are not always repeated. Entries after “also recorded” stand apart in the source; their conditions may differ. Where two headings read alike, the source gives them in different places. Each block holds one compound with its values, some of them ahead of it.
Columns and labels:
[1] = tested on: HEK293 cells; assay: Cell viability assay of HEK293 cells treated with inhibitors (CellTiter-Glo); details: for cytotoxicity (in words): HEK293, 24 h, up to 30 μM; for EC50: HEK293, 24 h compound, highest concentration 30 μM, n = 3; for IC50 (Figure 3D: EC50 values for plot; log(inhibitor) vs. response -- Variable slope (four parameters)) / LogIC50 (log(inhibitor) vs. response -- Variable slope (four parameters)): HEK293 cell viability, fit per plate (3 plates, 4 technical replicates each); for IC50 (Figure 3D: EC50 values for plot; log(inhibitor) vs. response -- Variable slope (four parameters)): highest tested concentration 30 µM; for LogIC50 (log(inhibitor) vs. response -- Variable slope (four parameters)): log of [µM]
[2] = molecular target: T1, human DNA ligase 1 (hLig1) (Homo sapiens, UniProt P18858); assay: DNA ligation assay with various hLig1 concentration at constant inhibitor concentration; format: biochemical; details: 30 min 37 °C; for DNA product formation: 10 µM compound, three replicates
T1 construct: made in house; host or cells: E. coli Rosetta BL21 (DE3), pET28a-hLig1

[3] = molecular target: T2, Rlig1-AMP (Homo sapiens, UniProt Q8N999); assay: Radioactive RNA ligation assay (hit validation, 10 µM test and IC50 determination); format: biochemical; details: for inhibition of Rlig1-AMP ligation (urea-PAGE): 10 μM compound; for IC50: n = 3; for percentage inhibition (dose response curve for IC50): replicates I-III; for LogIC50 (best-fit value): log of µM; for Bottom (best-fit value) / Top (best-fit value): log(inhibitor) vs. response, variable slope (four parameters)
T2 construct: made in house; host or cells: E. coli BL21 (DE3), pET15b-Rlig1

[4] = molecular target: T2, Rlig1-AMP; assay: FRET-based high-throughput screening of inhibitors for Rlig1-AMP; format: biochemical; details: HTS hits; for 1-D Distance: difference of raw data w/o and w enzyme; for Raw data [w Enyzm]: with enzyme; for Raw data [w/o Enzym]: without enzyme
[5] = ref MedChemExpress, cited from earlier work
[6] = ultrasonic/warming, ref MedChemExpress, cited from earlier work
[7] = four-parameter fit, read-out: IC50 (best-fit value)
[8] = radioactive ligation assay, 500 nM Rlig1-AMP, 20 min 37 °C, read-out: IC50

T1 sequence (P18858 whole entry): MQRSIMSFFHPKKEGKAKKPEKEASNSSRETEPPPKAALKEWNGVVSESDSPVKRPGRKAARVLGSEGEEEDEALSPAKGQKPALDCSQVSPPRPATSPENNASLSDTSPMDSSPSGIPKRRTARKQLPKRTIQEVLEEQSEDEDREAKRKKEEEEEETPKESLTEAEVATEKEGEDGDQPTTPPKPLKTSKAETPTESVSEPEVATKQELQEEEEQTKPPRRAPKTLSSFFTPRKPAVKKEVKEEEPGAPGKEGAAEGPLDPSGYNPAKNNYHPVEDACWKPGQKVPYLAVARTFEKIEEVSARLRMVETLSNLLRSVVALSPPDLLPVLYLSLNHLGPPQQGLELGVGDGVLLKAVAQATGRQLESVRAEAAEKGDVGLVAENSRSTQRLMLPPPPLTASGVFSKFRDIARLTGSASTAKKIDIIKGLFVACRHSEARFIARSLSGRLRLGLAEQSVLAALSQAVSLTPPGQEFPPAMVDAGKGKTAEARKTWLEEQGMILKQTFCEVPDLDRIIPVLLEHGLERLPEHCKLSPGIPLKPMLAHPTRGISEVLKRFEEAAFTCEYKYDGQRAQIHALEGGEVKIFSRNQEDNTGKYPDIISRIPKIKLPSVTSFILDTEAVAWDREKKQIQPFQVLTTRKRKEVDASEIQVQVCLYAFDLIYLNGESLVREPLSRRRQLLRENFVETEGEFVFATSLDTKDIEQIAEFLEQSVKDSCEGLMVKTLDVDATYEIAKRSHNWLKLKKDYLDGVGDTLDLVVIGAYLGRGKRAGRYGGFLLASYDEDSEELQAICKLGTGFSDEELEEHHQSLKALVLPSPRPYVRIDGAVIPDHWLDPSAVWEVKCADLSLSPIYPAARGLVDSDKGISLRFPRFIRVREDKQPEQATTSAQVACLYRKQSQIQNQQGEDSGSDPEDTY
T2 sequence (Q8N999 whole entry): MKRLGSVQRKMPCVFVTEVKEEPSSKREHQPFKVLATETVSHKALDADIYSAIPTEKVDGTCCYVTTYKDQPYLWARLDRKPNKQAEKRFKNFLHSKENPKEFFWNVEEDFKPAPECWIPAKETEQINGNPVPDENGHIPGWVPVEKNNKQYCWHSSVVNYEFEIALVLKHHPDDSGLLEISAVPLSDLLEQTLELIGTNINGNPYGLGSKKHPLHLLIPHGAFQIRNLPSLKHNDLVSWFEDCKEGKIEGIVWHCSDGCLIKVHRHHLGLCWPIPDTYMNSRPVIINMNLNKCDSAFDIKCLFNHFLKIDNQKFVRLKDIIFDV

SMILES: Nc1nc(Nc2ccc(NC(=O)c3ccc(Nc4ccnc5ccccc45)cc3)cc2)cc(C(F)(F)F)n1 [Compound 41]
- cytotoxicity (in words) [1]: comparatively high cytotoxicity
- EC50 [1]: 5.59 µM
- IC50 (Figure 3D: EC50 values for plot; log(inhibitor) vs. response -- Variable slope (four parameters)) [1]: 5.211 µM and 5.311 µM and 6.697 µM
- LogIC50 (log(inhibitor) vs. response -- Variable slope (four parameters)) [1]: 0.717 and 0.7252 and 0.8259
- effect on hLig1 activity (in words) ([2]; 10 μM compound, hLig1 titrated (500 nM to 31.3 nM)): least impact on hLig1 activity
- DNA product formation ([2]; hlig1 0.0315 µM): 32.8195% and 34.8543% and 48.0642%
- DNA product formation ([2]; hlig1 0.0625 µM): 59.0993% and 56.4484% and 66.8349%
- DNA product formation ([2]; hlig1 0.5 µM): 87.3568% and 90.1164% and 79.5057%
- inhibition of Rlig1-AMP ligation (urea-PAGE) ([3]; 500 nM Rlig1-AMP, 20 min 37 °C): Ligation was inhibited; also recorded: fully inhibited
- HillSlope (best-fit value) ([3]; four-parameter fit): 6.706
- Span (best-fit value) ([3]; four-parameter fit): 91.68
- IC50 [3, 7]: 7.98 µM
- percentage inhibition (dose response curve for IC50) ([3]; log Compound [µM] 0.273001): 1.895 and 15.4708 and 0.5134
- percentage inhibition (dose response curve for IC50) ([3]; log Compound [µM] 0.574031): 11.1208 and 11.2726 and 0
- percentage inhibition (dose response curve for IC50) ([3]; log Compound [µM] 0.875061): 30.9538 and 51.1087 and 45.619
- percentage inhibition (dose response curve for IC50) ([3]; log Compound [µM] 1.17609): 95.8601 and 98.8258 and 95.9476
- percentage inhibition (dose response curve for IC50) ([3]; log Compound [µM] 1.47712): 93.067 and 100 and 99.7336
- percentage inhibition (dose response curve for IC50) ([3]; log Compound [µM] -0.0280287): 9.18 and 3.83 and 4.351
- percentage inhibition (dose response curve for IC50) ([3]; log Compound [µM] -0.329059): 8.319 and 4.077 and 3.842
- percentage inhibition (dose response curve for IC50) ([3]; log Compound [µM] -0.630089): 9.025 and 10.4021 and 1.823
- LogIC50 (best-fit value) ([3]; four-parameter fit): 0.9022
- Bottom (best-fit value) [3]: 6.221
- Top (best-fit value) [3]: 97.9
- IC50 [3, 8]: 7.98 µM

SMILES: CNc1nccc(Nc2ccc(NC(=O)c3ccc(Nc4ccnc5ccccc45)cc3)cc2)n1 [Compound 42]
- cytotoxicity (in words) [1]: comparatively high cytotoxicity
- EC50 [1]: 3.51 µM
- IC50 (Figure 3D: EC50 values for plot; log(inhibitor) vs. response -- Variable slope (four parameters)) [1]: 3.237 µM and 3.382 µM and 4.036 µM
- LogIC50 (log(inhibitor) vs. response -- Variable slope (four parameters)) [1]: 0.5101 and 0.5292 and 0.6059
- DNA product formation ([2]; hlig1 0.0315 µM): 8.9605% and 14.7712% and 28.5706%
- DNA product formation ([2]; hlig1 0.0625 µM): 20.859% and 38.2979% and 41.6376%
- DNA product formation ([2]; hlig1 0.5 µM): 72.119% and 74.3311% and 77.4812%
- inhibition of Rlig1-AMP ligation (urea-PAGE) ([3]; 500 nM Rlig1-AMP, 20 min 37 °C): Ligation was inhibited; also recorded: fully inhibited
- HillSlope (best-fit value) ([3]; four-parameter fit): 5.584
- Span (best-fit value) ([3]; four-parameter fit): 91.59
- IC50 [3, 7]: 3.29 µM
- percentage inhibition (dose response curve for IC50) ([3]; log Compound [µM] 0.273001): 16.0159 and 7.852 and 10.1751
- percentage inhibition (dose response curve for IC50) ([3]; log Compound [µM] 0.574031): 79.3655 and 83.1907 and 44.7582
- percentage inhibition (dose response curve for IC50) ([3]; log Compound [µM] 0.875061): 100 and 98.6279 and 97.3725
- percentage inhibition (dose response curve for IC50) ([3]; log Compound [µM] 1.17609): 100 (2×) and 92.704
- percentage inhibition (dose response curve for IC50) ([3]; log Compound [µM] 1.47712): 100
- percentage inhibition (dose response curve for IC50) ([3]; log Compound [µM] -0.0280287): 9.717 and 4.5039 and 9.184
- percentage inhibition (dose response curve for IC50) ([3]; log Compound [µM] -0.329059): 6.426 and 0 and 5.66
- percentage inhibition (dose response curve for IC50) ([3]; log Compound [µM] -0.630089): 11.6754 and 8.294 and 11.6155
- LogIC50 (best-fit value) ([3]; four-parameter fit): 0.5177
- Bottom (best-fit value) [3]: 7.458
- Top (best-fit value) [3]: 99.05
- IC50 [3, 8]: 3.29 µM

SMILES: O=C1c2ccccc2-c2nc3nnnn3nc21.O=C1c2ccccc2-c2nn3nnnc3nc21 [KP372-1]
- 1-D Distance [4]: 385
- 1-D Distance.npi ([4]; normalized value (npi)): 99.8878
- Raw data [w Enyzm] [4]: 14308
- Raw data [w/o Enzym] [4]: 13923
- solubility ([5]; DMSO): 17.86 mg/mL and 39.83 mM

SMILES: CCn1c(=O)/c(=C2\Sc3ccccc3N2C)s/c1=C\c1cccc[n+]1CC.[Cl-] [MKT-077]
- 1-D Distance [4]: 170
- 1-D Distance.npi ([4]; normalized value (npi)): 104.232
- Raw data [w Enyzm] [4]: 657
- Raw data [w/o Enzym] [4]: 827
- solubility ([5]; DMSO): 56.67 mg/mL and 131.18 mM
- solubility ([5]; H2O): < 0.1 mg/mL

SMILES: O=C1c2ccccc2C(=O)c2c1cc(S(=O)(=O)Nc1ccc(C(F)(F)F)cc1)c(O)c2O [PGMI-004A]
- 1-D Distance [4]: 1480
- 1-D Distance.npi ([4]; normalized value (npi)): 78.7935
- Raw data [w Enyzm] [4]: 2222
- solubility ([5]; DMSO): ≥ 125 mg/mL and ≥ 269.76 mM

- 1-D Distance [4]: 1429
- Raw data [w Enyzm] [4]: 5362
SMILES: Cc1[nH]c(/C=C2\C(=O)Nc3ccc(S(=O)(=O)Cc4c(Cl)cccc4Cl)cc32)c(C)c1C(=O)N1CCC[C@@H]1CN1CCCC1 [PHA-665752]
- solubility ([5]; DMSO): 50 mg/mL and 77.93 mM

SMILES: COc1cccc2c1C(=O)c1c(O)c3c(c(O)c1C2=O)C[C@@](O)(C(=O)CO)C[C@@H]3O[C@H]1C[C@H](N)[C@H](O[C@@H]2CCCCO2)[C@H](C)O1.Cl [Pirarubicin (Hydrochloride)]
- solubility, DMSO ([6]; DMSO): 20.83 mg/mL and 31.37 mM
- solubility, H2O ([6]; H2O): < 100 µg/mL
- 1-D Distance [4]: 1020
- 1-D Distance.npi ([4]; normalised value of 1-D Distance): 86.4182
- Raw data [w Enyzm] [4]: 2238
- Raw data [w/o Enzym] [4]: 3258
